This note sets out measurements from ChEMBL document CHEMBL4417631, “Oral peptide inhibitors of interleukin-23 receptor and their use to treat inflammatory bowel diseases” (2017).

Where a SMILES comes first, the peptide text is derived from it. [ ]: non-standard residue; d: D form. hLeu = CC(C)CC[C@H](N)C(=O)O

This assay addresses T1, Interleukin-23 receptor (Homo sapiens, UniProt Q5VWK5).
T1 sequence (Q5VWK5 whole entry): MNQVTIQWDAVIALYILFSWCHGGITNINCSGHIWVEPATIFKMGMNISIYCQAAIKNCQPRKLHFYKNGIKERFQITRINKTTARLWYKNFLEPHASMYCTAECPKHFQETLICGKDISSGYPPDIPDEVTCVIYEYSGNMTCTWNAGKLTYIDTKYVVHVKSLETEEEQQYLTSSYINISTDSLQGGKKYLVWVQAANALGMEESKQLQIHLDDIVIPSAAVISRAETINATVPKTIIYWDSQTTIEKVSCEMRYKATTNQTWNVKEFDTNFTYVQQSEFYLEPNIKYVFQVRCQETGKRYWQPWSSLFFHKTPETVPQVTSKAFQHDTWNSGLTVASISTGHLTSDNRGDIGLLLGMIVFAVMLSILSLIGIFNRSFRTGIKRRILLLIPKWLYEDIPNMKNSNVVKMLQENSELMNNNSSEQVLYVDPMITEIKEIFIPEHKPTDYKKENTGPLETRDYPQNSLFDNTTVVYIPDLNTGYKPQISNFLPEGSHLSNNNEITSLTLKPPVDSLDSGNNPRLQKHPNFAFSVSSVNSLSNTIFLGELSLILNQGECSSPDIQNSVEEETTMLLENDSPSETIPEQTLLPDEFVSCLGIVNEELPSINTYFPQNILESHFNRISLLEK
In words: Inhibition of interleukin-23 binding to human interleukin-23 receptor incubated for 2 hrs by competitive binding ELISA. On the technique in general: An ELISA detects its analyte on a solid surface through an enzyme-linked reagent.
As for `CC(=O)N[C@@H](CS)C(=O)N[C@@H](CCC(N)=O)C(=O)N[C@H](C(=O)N[C@@H](CCCNC(=N)N)C(=O)N[C@@H](CCC(N)=O)C(=O)N[C@@H](CS)C(=O)N[C@@H](Cc1ccc(O)cc1)C(=O)N[C@@H](Cc1c[nH]c2ccccc12)C(=O)N[C@@H](CCC(C)C)C(=O)N[C@@H](CCC(=O)O)C(=O)N[C@@H](CC(N)=O)C(=O)NCC(N)=O)[C@@H](C)O` (Ac-CQTRQCYW[hLeu]ENG-NH2), the IC50 is more than 10000 nM.
Regarding `CC(=O)N[C@@H](CS)C(=O)N[C@@H](C)C(=O)N[C@@H](CC(=O)O)C(=O)N[C@@H](Cc1c[nH]c2ccccc12)C(=O)N[C@H](C(=O)N[C@@H](CS)C(=O)N[C@@H](Cc1ccc(O)cc1)C(=O)N[C@@H](Cc1cccc2ccccc12)C(=O)N(C)[C@@H](Cc1cnc[nH]1)C(=O)N[C@H](C)C(=O)N[C@@H](Cc1ccccc1)C(=O)NC(C)(C)C(N)=O)C(C)C`, the IC50 is more than 1000 nM.
As for `CC(=O)N[C@@H](CS)C(=O)N[C@@H](CCC(N)=O)C(=O)N[C@H](C(=O)N[C@@H](Cc1c[nH]c2ccccc12)C(=O)N[C@@H](CCC(N)=O)C(=O)N[C@@H](CS)C(=O)N[C@@H](Cc1ccc(O)cc1)C(=O)N[C@@H](Cc1c[nH]c2ccccc12)C(=O)N[C@@H](CCCNC(=N)N)C(=O)N(C)[C@@H](CCCNC(=N)N)C(=O)N[C@@H](CC(N)=O)C(=O)NCC(=O)NCCOCC(=O)N[C@H](CCCCN)C(N)=O)[C@@H](C)O`, the half-inhibitory concentration (IC50) was more than 1000 nM.
Then `CC(=O)N[C@@H](CS)C(=O)N[C@@H](CCC(N)=O)C(=O)N[C@H](C(=O)N[C@@H](Cc1c[nH]c2ccccc12)C(=O)N[C@@H](CCC(N)=O)C(=O)N[C@@H](CS)C(=O)N[C@@H](Cc1ccc(O)cc1)C(=O)N[C@@H](Cc1c[nH]c2ccccc12)C(=O)N(C)[C@@H](CCCNC(=N)N)C(=O)N[C@@H](CCC(=O)O)C(=O)N[C@@H](CC(N)=O)C(=O)NCC(=O)NCCOCC(=O)N[C@H](CCCCN)C(N)=O)[C@@H](C)O`, with more than 1000 nM; and `CC(=O)N[C@H](CCCCN)C(=O)N[C@@H](CO)C(=O)N[C@@H](CS)C(=O)N[C@@H](C)C(=O)N[C@@H](CC(=O)O)C(=O)N[C@@H](Cc1c[nH]c2ccccc12)C(=O)N[C@H](C(=O)N[C@@H](CS)C(=O)N[C@@H](Cc1ccc(O)cc1)C(=O)N[C@@H](Cc1c[nH]c2ccccc12)C(=O)N[C@@H](Cc1cnc[nH]1)C(=O)N[C@H](C(=O)N[C@@H](Cc1ccccc1)C(=O)NCC(=O)O)[C@@H](C)O)C(C)C`, with more than 1000 nM; and `CC(=O)N[C@@H](CS)C(=O)N[C@@H](CCC(N)=O)C(=O)N[C@H](C(=O)N[C@@H](Cc1c[nH]c2ccccc12)C(=O)N[C@@H](CCC(N)=O)C(=O)N[C@@H](CS)C(=O)N[C@@H](Cc1ccc(O)cc1)C(=O)N[C@@](C)(Cc1c[nH]c2ccccc12)C(=O)N[C@@H](CCCNC(N)=O)C(=O)N[C@@H](CCC(C)C)C(=O)N[C@@H](CC(N)=O)C(=O)NCC(=O)NCCC(=O)N[C@H](CCCCN)C(N)=O)[C@@H](C)O`, with 6000 nM.
In the case of `CC(=O)N[C@@H](CS)C(=O)N[C@@H](CCC(N)=O)C(=O)N[C@H](C(=O)N[C@@H](Cc1c[nH]c2ccccc12)C(=O)N[C@@H](CCC(N)=O)C(=O)N[C@@H](CS)C(=O)N[C@@H](Cc1ccc(O)cc1)C(=O)N[C@@H](Cc1c[nH]c2ccccc12)C(=O)N1CCC[C@H]1C(=O)N[C@@H](CCC(=O)O)C(=O)N[C@@H](CC(N)=O)C(=O)NCC(N)=O)[C@@H](C)O`, the half-inhibitory concentration (IC50) is more than 30000 nM.
For the compound `CC(=O)NCCCC[C@H](NC(=O)[C@](C)(CCCCN)NC(=O)[C@H](Cc1ccc2ccccc2c1)NC(=O)[C@H](Cc1ccc(O)cc1)NC(=O)[C@@H]1CSCC[C@H](NC(C)=O)C(=O)N[C@@H](CCC(N)=O)C(=O)N[C@@H]([C@@H](C)O)C(=O)N[C@@H](Cc2c[nH]c3ccccc23)C(=O)N[C@@H](CCC(N)=O)C(=O)N1)C(=O)N[C@@H](CC(N)=O)C(=O)NCC(=O)NCC(=O)N[C@@H](CCC(=O)O)C(N)=O`, the IC50 was 25 to 100 nM.

For orientation: IC50 means the concentration that gives 50% inhibition. The low end stands for higher potency, the high end for lower potency.
